# Source: PubChem BioAssay (NCI)
#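 Step 1: Grow cells in 96-well plates. Step 2: Expose to compound for 48 hours at 5 concentrations. Step 3: Interpolate endpoints linearly; if unreached, use highest concentration. GI50 = concentration required for 50% inhibition of growth. TGI denotes the concentration required for complete inhibition of growth.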
# What was measured:
# Assay in all cases: NCI-60 cell line screen, 48 h
# RPMI-8226 leukemia = tested on: RPMI-8226 leukemia
# DU-145 prostate = tested on: DU-145 prostate
# HOP-62 NSCLC = tested on: HOP-62 NSCLC
# SK-OV-3 ovarian = tested on: SK-OV-3 ovarian
# NCI/ADR-RES ovarian = tested on: NCI/ADR-RES ovarian
# TK-10 renal = tested on: TK-10 renal
# SNB-75 CNS = tested on: SNB-75 CNS
# NCI-H226 lung = tested on: NCI-H226 lung
# SN12C renal = tested on: SN12C renal
# MDA-MB-231 breast = tested on: MDA-MB-231 breast
# CAKI-1 renal = tested on: CAKI-1 renal
# PC-3 prostate = tested on: PC-3 prostate
# BT-549 breast = tested on: BT-549 breast
# NCI-H522 lung = tested on: NCI-H522 lung
# UACC-62 melanoma = tested on: UACC-62 melanoma
# OVCAR-8 ovarian = tested on: OVCAR-8 ovarian
# EKVX NSCLC = tested on: EKVX NSCLC
# U251 CNS = tested on: U251 CNS
# UACC-257 melanoma = tested on: UACC-257 melanoma
# RXF 393 renal = tested on: RXF 393 renal
# HCT-116 colon = tested on: HCT-116 colon
# COLO 205 colon = tested on: COLO 205 colon
# HCT-15 colon = tested on: HCT-15 colon
# OVCAR-4 ovarian = tested on: OVCAR-4 ovarian
# LOX IMVI melanoma = tested on: LOX IMVI melanoma
# MDA-MB-435 = tested on: MDA-MB-435
# ACHN renal = tested on: ACHN renal
# M14 melanoma = tested on: M14 melanoma
# OVCAR-3 ovarian = tested on: OVCAR-3 ovarian
# HOP-92 NSCLC = tested on: HOP-92 NSCLC
# CCRF-CEM leukemia = tested on: CCRF-CEM leukemia
# MCF7 breast = tested on: MCF7 breast
# SK-MEL-2 melanoma = tested on: SK-MEL-2 melanoma
# KM12 colon = tested on: KM12 colon
# HL-60(TB) leukemia = tested on: HL-60(TB) leukemia
# SF-268 CNS = tested on: SF-268 CNS
# SNB-19 CNS = tested on: SNB-19 CNS
# 786-0 renal = tested on: 786-0 renal
# SF-539 CNS = tested on: SF-539 CNS
# NCI-H23 lung = tested on: NCI-H23 lung
# MALME-3M melanoma = tested on: MALME-3M melanoma
# T-47D breast = tested on: T-47D breast
# IGROV1 ovarian = tested on: IGROV1 ovarian
# SK-MEL-5 melanoma = tested on: SK-MEL-5 melanoma
# SK-MEL-28 melanoma = tested on: SK-MEL-28 melanoma
# K-562 leukemia = tested on: K-562 leukemia
# OVCAR-5 ovarian = tested on: OVCAR-5 ovarian
# SF-295 CNS = tested on: SF-295 CNS
# A549 NSCLC = tested on: A549 NSCLC
# HS 578T breast = tested on: HS 578T breast
# HT29 colon = tested on: HT29 colon
# NCI-H460 lung = tested on: NCI-H460 lung
# UO-31 renal = tested on: UO-31 renal
# SW-620 colon = tested on: SW-620 colon
smiles,measurement,setting,value
COc1ccc2[nH]c(Cl)c(/C=C3/C(=O)Nc4ccccc43)c2c1,GI50,RPMI-8226 leukemia,213 nM
same,TGI,RPMI-8226 leukemia,591 nM
same,GI50,DU-145 prostate,279 nM
same,TGI,DU-145 prostate,2350 nM
same,GI50,HOP-62 NSCLC,523 nM
same,TGI,HOP-62 NSCLC,1270 nM
same,GI50,SK-OV-3 ovarian,865 nM
same,TGI,SK-OV-3 ovarian,16900 nM
same,GI50,NCI/ADR-RES ovarian,715 nM
same,TGI,NCI/ADR-RES ovarian,3380 nM
same,GI50,TK-10 renal,1060 nM
same,TGI,TK-10 renal,8740 nM
same,GI50,SNB-75 CNS,252 nM
same,TGI,SNB-75 CNS,659 nM
same,GI50,NCI-H226 lung,782 nM
same,TGI,NCI-H226 lung,19200 nM
same,GI50,SN12C renal,339 nM
same,TGI,SN12C renal,14700 nM
same,GI50,MDA-MB-231 breast,< 47.7 nM
same,TGI,MDA-MB-231 breast,2950 nM
same,GI50,CAKI-1 renal,673 nM
same,TGI,CAKI-1 renal,1750 nM
same,GI50,PC-3 prostate,676 nM
same,TGI,PC-3 prostate,6840 nM
same,GI50,BT-549 breast,185 nM
same,TGI,BT-549 breast,523 nM
same,GI50,NCI-H522 lung,381 nM
same,TGI,NCI-H522 lung,1870 nM
same,GI50,UACC-62 melanoma,1110 nM
same,TGI,UACC-62 melanoma,2510 nM
same,GI50,OVCAR-8 ovarian,498 nM
same,GI50,EKVX NSCLC,2070 nM
same,TGI,EKVX NSCLC,3960 nM
same,GI50,U251 CNS,861 nM
same,TGI,U251 CNS,2750 nM
same,GI50,UACC-257 melanoma,984 nM
same,TGI,UACC-257 melanoma,11200 nM
same,GI50,RXF 393 renal,381 nM
same,TGI,RXF 393 renal,6920 nM
same,GI50,HCT-116 colon,238 nM
same,TGI,HCT-116 colon,1170 nM
same,GI50,COLO 205 colon,427 nM
same,TGI,COLO 205 colon,3250 nM
same,GI50,HCT-15 colon,611 nM
same,TGI,HCT-15 colon,3360 nM
same,GI50,OVCAR-4 ovarian,1130 nM
same,TGI,OVCAR-4 ovarian,14300 nM
same,GI50,LOX IMVI melanoma,345 nM
same,TGI,LOX IMVI melanoma,11300 nM
same,GI50,MDA-MB-435,251 nM
same,TGI,MDA-MB-435,708 nM
same,GI50,ACHN renal,786 nM
same,TGI,ACHN renal,5850 nM
same,GI50,M14 melanoma,254 nM
same,TGI,M14 melanoma,1230 nM
same,GI50,OVCAR-3 ovarian,537 nM
same,TGI,OVCAR-3 ovarian,1070 nM
same,GI50,HOP-92 NSCLC,1990 nM
same,TGI,HOP-92 NSCLC,4090 nM
same,GI50,CCRF-CEM leukemia,216 nM
same,TGI,CCRF-CEM leukemia,737 nM
same,GI50,MCF7 breast,790 nM
same,TGI,MCF7 breast,> 38500 nM
same,GI50,SK-MEL-2 melanoma,1200 nM
same,TGI,SK-MEL-2 melanoma,> 30800 nM
same,GI50,KM12 colon,563 nM
same,TGI,KM12 colon,3090 nM
same,GI50,HL-60(TB) leukemia,449 nM
same,TGI,HL-60(TB) leukemia,2840 nM
same,GI50,SF-268 CNS,939 nM
same,TGI,SF-268 CNS,36500 nM
same,GI50,SNB-19 CNS,852 nM
same,GI50,786-0 renal,282 nM
same,TGI,786-0 renal,937 nM
same,GI50,SF-539 CNS,483 nM
same,TGI,SF-539 CNS,731 nM
same,GI50,NCI-H23 lung,219 nM
same,TGI,NCI-H23 lung,688 nM
same,GI50,MALME-3M melanoma,643 nM
same,TGI,MALME-3M melanoma,2260 nM
same,GI50,T-47D breast,5400 nM
same,TGI,T-47D breast,84500 nM
same,GI50,IGROV1 ovarian,724 nM
same,TGI,IGROV1 ovarian,20700 nM
same,GI50,SK-MEL-5 melanoma,90.2 nM
same,TGI,SK-MEL-5 melanoma,722 nM
same,GI50,SK-MEL-28 melanoma,459 nM
same,TGI,SK-MEL-28 melanoma,5470 nM
same,GI50,K-562 leukemia,444 nM
same,TGI,K-562 leukemia,13200 nM
same,GI50,OVCAR-5 ovarian,554 nM
same,TGI,OVCAR-5 ovarian,3120 nM
same,GI50,SF-295 CNS,574 nM
same,TGI,SF-295 CNS,1280 nM
same,GI50,A549 NSCLC,1200 nM
same,TGI,A549 NSCLC,5360 nM
same,GI50,HS 578T breast,837 nM
same,TGI,HS 578T breast,4310 nM
same,GI50,HT29 colon,316 nM
same,GI50,NCI-H460 lung,1250 nM
same,TGI,NCI-H460 lung,> 34800 nM
same,GI50,UO-31 renal,878 nM
same,TGI,UO-31 renal,9960 nM
same,GI50,SW-620 colon,366 nM
same,TGI,SW-620 colon,7580 nM
